From US5028604A, “Condensed benzene derivative” (Zeria Pharmaceutical Co., Ltd., priority 1988, dated 1991)
Where two headings read alike, the source gives them in different places.

Legend:
[1] = tested on: ICR male mice; assay: Anti-Hypoxic Activity (survival time in 4% O2 + 96% N2); type: in vivo; details: Mus musculus, ip
Method: Groups of ICR male mice (Charles River Co.), age 4 to 5 weeks, each group consisting of 10 mice and each mouse having been fasted for 24 hours, were used for the test. Mice were placed in a transparent desiccator (diameter: 19 cm, height: 30 cm) made of synthetic resin and having 2 valves, one at the upper portion and the other at the lower portion, for replacing the gas therein. A mixed gas (4% O2 +96% N2) was fed from the upper valve at a rate of 10 l/min to measure the period of time until respiratory arrest took place for each mouse. The time measured was taken as the survival time.
Each tested compound suspended in an solvent was intraperitoneally administered 30 minutes before the start of the mixed gas feeding. A group of mice to which only the solvent was intraperitoneally administered was used as a control.
The anti-hypoxic activity was determined according to the following formula, [formula]

[2] = tested on: CD female rats; assay: Anti-Amnesic Activity (passive avoidance, electric convulsive shock); type: in vivo; details: 30 mg/kg P.O., one hour before acquisition trial; ECS; retention trial at 24 hours; solvent + sham 133.0, solvent + ECS 0.8
Method: Compounds of this invention were checked with respect to their abilities to prevent the inhibition of long-term memory fixation by electric convulsive shock (ECS). CD female rats (Charles River), weighed 160-180 g were used for the test. One hour after the administration of a compound of this invention, the acquisition trial according to the passive avoidance training was performed on the rats. A foot shock was given to the rats when they entered into a dark room. Immediately after that an amnesic treatment by ECS or a sham amnesic treatment was performed. Twenty four (24) hours after the acquisition trial the retention trial was performed. Latency of the […] entering into a dark room was measured.

[3] = target: T1, prolyl endopeptidase from canine brain (Canis lupus familiaris, UniProt A0A8I3N6C8); assay: Inhibitory Activity Against Prolyl Endopeptidase From Brain; type: biochemical; details: 37° C., pH 7.0, substrate benzyloxycarbonylglycylprolylparanitroanilide; read-out: Inhibition Potency, IC50
T1 construct: A prolyl endopeptidase was prepared from canine brains; from tissue; host or cells: canine brain
T1 sequence (A0A8I3N6C8 1-710): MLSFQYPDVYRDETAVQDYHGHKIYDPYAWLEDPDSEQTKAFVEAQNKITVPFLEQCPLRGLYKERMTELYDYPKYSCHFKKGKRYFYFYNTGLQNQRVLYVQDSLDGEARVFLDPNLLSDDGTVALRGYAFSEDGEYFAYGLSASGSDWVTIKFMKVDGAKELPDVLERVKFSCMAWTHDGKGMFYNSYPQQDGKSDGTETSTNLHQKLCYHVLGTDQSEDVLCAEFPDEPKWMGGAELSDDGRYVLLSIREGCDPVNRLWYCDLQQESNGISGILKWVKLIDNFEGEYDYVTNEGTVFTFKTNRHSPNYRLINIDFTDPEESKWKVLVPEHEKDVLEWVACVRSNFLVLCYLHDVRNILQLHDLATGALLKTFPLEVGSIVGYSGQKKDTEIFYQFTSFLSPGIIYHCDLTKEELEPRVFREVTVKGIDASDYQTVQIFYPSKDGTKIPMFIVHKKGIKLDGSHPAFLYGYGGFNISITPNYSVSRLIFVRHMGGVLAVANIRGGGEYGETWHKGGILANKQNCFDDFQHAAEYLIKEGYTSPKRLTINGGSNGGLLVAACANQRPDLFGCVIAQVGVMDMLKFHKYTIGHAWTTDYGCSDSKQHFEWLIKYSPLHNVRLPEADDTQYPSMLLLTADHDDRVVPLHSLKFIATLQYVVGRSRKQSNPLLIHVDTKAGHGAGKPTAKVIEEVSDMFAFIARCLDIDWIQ
Method: Following buffer solutions were used for the measurement.
Buffer A: 20 mM Tris-HCl buffer (pH 7.0)
Buffer B: Buffer A containing 0.1% gelatin, 1 mM EDTA, and 1 mM 2-mercaptoethanol
This solution (50 μl) was added to 940 μl of the Buffer A, and the solution thus obtained was left at 37° C. for 10 minutes (This solution is herein referred to as "Enzyme solution"). A mixed solution of 50 μl of the Buffer B and 940 μl of Buffer A was used as a "Correction solution".
A test compound was dissolved in dimethylsulfoxide, and 10 μl of the solution was added to the Enzyme solution. The mixture was stirred and allowed to stand at 37° C. for 10 minutes. Separately, 10 μl of dimethylsulfoxide was added to the Enzyme solution and was processed in the same manner. The solution thus obtained was served as a "Control solution". The same procedure was carried out on the Correction solution.
One hundred (100) μl of 2.5 mM benzyloxycarbonylglycylprolylparanitroanilide, which was dissolved with 40% dioxane, was added to each of the above 3 solutions, i.e., the Enzyme solution with the test compound, Control solution, and Correction solution, and the reaction was carried out at 37° C. for 10 minutes.
Enzyme activities were determined by subtracting the blank value, i.e., the absorbance measured on the Correction solution, from the absorbance of each of the sample solutions and of the Control solution.

[4] = 100 mg/kg i.p., 30 minutes before mixed gas, control = 100, read-out: Anti-hypoxic Activity
[5] = read-out: Anti-hypoxic Activity

**Q.** How did the response vs control in vivo at 100 mg/kg [1, 4] turn out when O=C([C@@H]1CCCN1C(=O)CC1CCc2ccccc2C1)N1CCCC1 (stereo partly drawn) [Example 24, 1-[1-(1,2,3,4-tetrahydronaphthalen-2-ylacetyl)-L-prolyl]pyrrolidine] was run?
**A.** Its response vs control in vivo at 100 mg/kg is 235%.

**Q.** O=C([C@@H]1CSCN1C(=O)CC1Cc2ccccc2C1)N1CCSC1 [Example 1, 3-[3-(2-indanylacetyl)-L-thioprolyl]thiazolidine] was tested. Which response vs control in vivo at 100 mg/kg [1, 4] did it give?
**A.** Its response vs control in vivo at 100 mg/kg is 131%.

**Q.** What about the “Latency to entering into a dark room” value [2] of the same compound?
**A.** Its value is 77.0 s.

**Q.** Which response vs control in vivo at 100 mg/kg [1, 4] does the source give for COC1=C(OC)C(=O)C(CCCCCCCCCCO)=C(C)C1=O [Idebenone, reference compound] here?
**A.** The response vs control in vivo at 100 mg/kg was 140%.

**Q.** What does the source list for O=C[C@@H]1CCCN1C(=O)[C@@H]1CCCN1C(=O)CC1=Cc2ccccc2C1 [Example 42, 1-[1-(2-indenylacetyl)-L-prolyl]-L-prolinal]?
**A.** response vs control in vivo at 100 mg/kg [1, 4]: 168%; IC50 [3]: 0.0013 µM

**Q.** How did the response vs control in vivo at 100 mg/kg [1, 4] turn out when O=C([C@@H]1CCCN1C(=O)CC1=Cc2ccccc2C1)N1CCCC1 [Example 19, 1-[1-(2-indenyl-acetyl)-L-prolyl]pyrrolidine] was run?
**A.** Its response vs control in vivo at 100 mg/kg is 155%.

**Q.** O=C([C@@H]1CSCN1C(=O)CCCC1Cc2ccccc2C1)N1CCCC1 [Example 26, 1-{3-[4-(indan-2-yl)butanoyl]-L-thioprolyl}pyrrolidine] was tested. Which response vs control in vivo at 100 mg/kg [1, 4] did it give?
**A.** The response vs control in vivo at 100 mg/kg was 291%.

**Q.** For O=C(O)[C@@H]1CCCN1C(=O)[C@@H]1CCCN1C(=O)CC1Cc2ccccc2C1 [Example 17, 1-[1-(2-indanylacetyl)-L-prolyl]-L-proline], which response vs control in vivo at 100 mg/kg [1, 4] is on record?
**A.** Its response vs control in vivo at 100 mg/kg is 137%.

**Q.** O=C([C@@H]1CCCN1C(=O)CC1Cc2ccccc2C1)N1CCCC1 [Example 4, 1-[1-(2-indanylacetyl)-L-prolyl]pyrrolidine] was tested. Which response vs control in vivo at 100 mg/kg [1, 4] did it give?
**A.** The response vs control in vivo at 100 mg/kg was 141%.

**Q.** Which IC50 [3] does the source give for O=C([C@@H]1CCCCN1C(=O)CC1Cc2ccccc2C1)N1CCCC1 [Example 10, 1-[1-(2-indanylacetyl)-L-piperidine-2ylcarbonyl]pyrrolidine] here?
**A.** Its IC50 is 0.049 µM.

**Q.** Which response vs control in vivo at 100 mg/kg [1, 5] does the source give for COc1ccc(C(=O)N2CCCC2=O)cc1 [Aniracetam, reference compound] here?
**A.** Its response vs control in vivo at 100 mg/kg is 115%.

**Q.** And the response vs control in vivo at 300 mg/kg [1, 5]?
**A.** Its response vs control in vivo at 300 mg/kg is 159%.

**Q.** And the IC50 [3]?
**A.** The IC50 was > 1000 µM.

**Q.** For O=C(C1CSCCN1C(=O)CC1Cc2ccccc2C1)N1CCSC1 (racemic) [Example 5, 3-[4-(2-indanylacetyl)-DL-1,4-thiazan-3-ylcarbonyl]thiazolidine], which IC50 [3] is on record?
**A.** Its IC50 is 0.022 µM.

**Q.** Which response vs control in vivo at 50 mg/kg ([1]; 50 mg/kg i.p., 30 minutes before mixed gas, control = 100) does the source give for O=C([C@H]1CCCCN1C(=O)CC1Cc2ccccc2C1)N1CCCC1 [Example 11, 1-[1-(2-indanylacetyl)-D-piperidine-2-ylcarbonyl]pyrrolidine] here?
**A.** Its response vs control in vivo at 50 mg/kg is 141%.

**Q.** With CC(C)(CO)[C@@H](O)C(=O)NCCCC(=O)O [Calcium hopantenate, reference compound] as the compound, how does the response vs control in vivo at 250 mg/kg ([1]; 250 mg/kg i.p., 30 minutes before mixed gas, control = 100) read?
**A.** The response vs control in vivo at 250 mg/kg was 135%.

**Q.** With O=C([C@@H]1CCCN1C(=O)CC1=Cc2ccccc2C1)N1CCSC1 [Example 18, 3-[1-(2-indenylacetyl)-L-prolyl]thiazolidine] as the compound, how does the IC50 [3] read?
**A.** Its IC50 is 0.043 µM.

**Q.** Which response vs control in vivo at 100 mg/kg [1, 4] does the source give for O=C([C@@H]1CSCN1C(=O)CC1Cc2ccccc2C1)N1CCCC1 [Example 2, 1-[3-(2-indanylacetyl)-L-thioprolyl]pyrrolidine] here?
**A.** The response vs control in vivo at 100 mg/kg was 127%.
